From paper PMC10821124, “Dimeric 3,5-Bis(benzylidene)-4-piperidones: Tumor-Selective Cytotoxicity and Structure-Activity Relationships” (Medicines, 2024)
Where two headings read alike, the source gives them in different places.

Legend:
[1] = test system: human promyelocytic leukemia HL-60 cells; assay: Cytotoxicity, MTT method, HL-60 cells; assay type: cell-based; conditions: for CC50: Homo sapiens, read-out: CC50 HL-60; for SI (selectivity index) HL-60: average CC50 non-malignant cells / CC50 HL-60
Description: (§1) Human promyelocytic leukemia [HL-60 (RCB3683)] (purchased from Riken Cell Bank, Tsukuba, Japan) was cultured at 37 °C in RPMI1640 medium (Fujifilm Wako Pure Chemical Co., Osaka, Japan) supplemented with 10% heat (56 °C, 30 min) inactivated FBS (Sigma-Aldrich Inc. St. Louis, MO, USA), 100 U/mL penicillin G, and 100 µg/mL streptomycin sulfate in a humidified 5% CO2 incubator (MCO-170 AICUVD-P, Panasonic Healthcare Co., Ltd., Gunma, Japan). Human oral squamous cell carcinoma (OSCC) cell lines derived from tongue [HSC-2 (RCB1945), HSC-3 (RCB1975), HSC-4 (RCB1902)] (Riken Cell Bank), and human normal oral cells (gingival fibroblasts, HGF; pulp cell, HPC; periodontal ligament fibroblast, HPLF), established from the first premolar extracted tooth in the lower jaw and periodontal tissues of a child, according to the guidelines of Meikai University Ethic Committee (No. A0808), were cultured in DMEM medium (Fujifilm Wako Pure Chemical Co.) supplemented with 10% FBS and antibiotics. The compounds in Series 2–4 were evaluated against HL-60, HSC-2, HSC-3, HSC-4, HGF, HPC, and HPLF cells based on a literature procedure, as described previously. In brief, near confluent cells were incubated in triplicate for 48 h at 37 °C with different concentrations ([…], 6.3, 12.5, 25, 50, 100 µM) of the compounds; then, viable cell numbers were measured using the MTT method. From the dose–response curve, a 50% cytotoxic concentration (CC50) was determined. All samples were dissolved in dimethylsulfoxide (DMSO). The toxicity of DMSO alone was calculated and subtracted. The CC50 values were determined from dose–response curves.

[2] = test system: human oral squamous cell carcinoma HSC-2 cells; assay: Cytotoxicity, MTT method, HSC-2 cells; assay type: cell-based; conditions: for CC50: Homo sapiens, read-out: CC50 HSC-2; for SI (selectivity index) HSC-2: average CC50 non-malignant cells / CC50 HSC-2
Description: as §1

[3] = test system: human oral squamous cell carcinoma HSC-3 cells; assay: Cytotoxicity, MTT method, HSC-3 cells; assay type: cell-based; conditions: for CC50: Homo sapiens, read-out: CC50 HSC-3; for SI (selectivity index) HSC-3: average CC50 non-malignant cells / CC50 HSC-3
Description: as §1

[4] = test system: human oral squamous cell carcinoma HSC-4 cells; assay: Cytotoxicity, MTT method, HSC-4 cells; assay type: cell-based; conditions: for CC50: Homo sapiens, read-out: CC50 HSC-4; for SI (selectivity index) HSC-4: average CC50 non-malignant cells / CC50 HSC-4
Description: as §1

[5] = Cytotoxicity, MTT method, HGF non-malignant cells; assay type: cell-based, human; conditions: human, gingival fibroblasts (HGF), non-malignant, mean ± SD
Description: as §1

[6] = Cytotoxicity, MTT method, HPC non-malignant cells; assay type: cell-based, human; conditions: human, pulp cells (HPC), non-malignant, mean ± SD
Description: as §1

[7] = Cytotoxicity, MTT method, HPLF non-malignant cells; assay type: cell-based, human; conditions: human, periodontal ligament fibroblasts (HPLF), non-malignant, mean ± SD
Description: as §1

[8] = test system: human tumour cell lines HL-60, HSC-2, HSC-3, HSC-4; assay: Cytotoxicity, average over the four human tumour cell lines; assay type: cell-based; conditions: for CC50: Homo sapiens, read-out: AVE. CC50, human tumour cell lines; for AVE SI: average of the four SI values
Description: as §1

[9] = Cytotoxicity, average over the three human normal cells; assay type: cell-based; conditions: human, average of HGF, HPC, HPLF; read-out: AVE CC50, human normal cells
Description: as §1

caspases-3 and -7 = assay: Caspase-Glo 3/7 assay in HSC-2 cells; assay type: cell-based, human; conditions: 0.5 µM, 24 h
Description: Both 3b (0.5 µM) and 3c (0.5 µM) were examined for their ability to activate caspases-3 and -7 in HSC cells. This determination was accomplished using the Caspase-Glo 3/7 assay (Promega Corporation, Madison, WI, USA). In brief, this assay uses a tetrapeptide sequence DEVD, which is optimized for caspase and luciferase activities. The cell lysate was incubated with the Caspase-Glo reagent (buffer and substrate) for 1 h and the luminescence was measured. The resultant luminescent signal produced by luciferase was confirmed to be proportional to the amount of caspase-3 and -7 activity.

PARP1 = PARP1 cleavage, western blot in HSC-2 cells; assay type: cell-based, human; conditions: 0.5 µM, 24 h
Description: (§2) Antibodies against cleaved PARP1, bim, bax, puma, and bak were obtained from Cell Signaling Technology (Beverley, MA, USA) while the anti-actin antibody was purchased from Santa Cruz Biotechnology (Santa Cruz, CA, USA).
(§3) The HSC-2 cells were cultured for 24 h and, then, treated with 0.5 µM of 3b or 3c for 24 h. The cells were scraped and collected in lysis buffer (purchased from Cell Signaling Technology), which contained 1 mM of phenylmethanesulfonyl fluoride and one tablet of protease inhibitor cocktail (Complete, EDTA-free; Roche Diagnostics, Mannheim, Germany). The proteins were subjected to 8% SDS-polyacrylamide gel electrophoresis and, then, transferred to a polyvinylidene difluoride membrane saturated with 5% nonfat dry milk. The membranes were incubated with rabbit monoclonal anti-cleaved PARP (Cell Signaling Technology, Beverly, MA, USA; #9541, 1:1000), or beta-actin antibody (Sigma-Aldrich, St Louis, MO, USA; A5441, 1:10,000) for 1 h at room temperature. The membranes were washed with Tris-buffered saline containing 0.1% Tween 80. And, the secondary antibodies were horseradish peroxidase-conjugated goat antimouse or antirabbit, which reacted with the chemoluminescent substrate system and were exposed to X-ray films.

HSC-2 cells = assay: Cell cycle analysis of HSC-2 cells; assay type: cell-based, human; conditions: 0.5 µM, 24 h
Description: The effect of 3b (0.5 µM) and 3c (0.5 µM) on the phase distribution of HSC-2 cells after 24 h of incubation was determined using the protocol of a manufacturer (BD Pharmingen, BD BioSciences, San Jose, CA, USA). In brief, treated and untreated cells were suspended at a density of ~1 × 10^6 cells/mL in cooled phosphate-buffered saline (PBS) without calcium and magnesium ions and fixed with 70% ethanol overnight at −20 °C. The cells were washed with cooled PBS and re-suspended in a propidium iodide/RNase staining buffer in the dark at room temperature for 0.25 h. Both acquisition and analysis were performed using EPICS ALTRA (Beckman Coulter, Brea, CA, USA) and EXPO 32 software.

bim, bax, puma, and bak = assay: Pro-apoptotic proteins bim, bax, puma, bak in HSC-2 cells; assay type: cell-based, human; conditions: 24 h, data not shown
Description: as §2, §3

HCT116 cells [10] = assay: Mitochondrial membrane potential determination in HCT116 cells; assay type: cell-based, human; conditions: 48 h, tetramethylrhodamine ethyl ester
Description: The determination of the IC50 values of 3b, 3c, and 5-FU on the mitochondrial membrane potential in HCT 116 cells was undertaken using a literature procedure. In brief, the cells were incubated at 37 °C in an atmosphere of 5% carbon dioxide for 24 h. The compounds were dissolved in DMSO, added to the cells, and incubated for 48 h. Then, […], and 2,4-dinitrophenol (DNP) were added to the cells, which were incubated for 0.5 h. After the addition of tetramethylrhodamine ethyl ester, the fluorescence of the cells was determined using a plate reader.

HCT116 cells [11] = assay: Reactive oxygen species determination in HCT116 cells; assay type: cell-based, human; conditions: 48 h, dichlorofluorescein fluorescence
Description: The determination of the effects of 3b, 3c, and 5-FU on the generation of reactive oxygen species in HCT 116 cells was accomplished using a literature procedure. In brief, the cells were incubated at 37 °C in an atmosphere of 5% carbon dioxide for 24 h. Subsequently, solutions of the compounds in DMSO were added to the cells, which were incubated for 48 h. After 2′,7′-dichlorofluorescein was added to the cells, incubation continued for another 0.5 h and the fluorescence of the cells was measured spectrophotometrically (excitation wavelength 485 nm; emission wavelength, 530 nm).

[12] = test system: human gingival fibroblasts (HGF); assay: Cytotoxicity, MTT method, HGF non-malignant cells; assay type: cell-based; conditions: 48 h, mean ± SD
Description: as §1

human pulp cells (HPC) = assay: Cytotoxicity, MTT method, HPC non-malignant cells; assay type: cell-based; conditions: 48 h, mean ± SD
Description: as §1

[13] = test system: human periodontal ligament fibroblasts (HPLF); assay: Cytotoxicity, MTT method, HPLF non-malignant cells; assay type: cell-based; conditions: 48 h, mean ± SD
Description: as §1

[14] = test system: human normal cells HGF, HPC, HPLF; assay: Cytotoxicity, average over the three human normal cells; assay type: cell-based; conditions: average of HGF, read-out: AVE CC50, human normal cells
Description: as §1

With `O=C1/C(=C/c2ccc(Cl)cc2)CN(C(=O)CC(=O)N2C/C(=C\c3ccc(Cl)cc3)C(=O)/C(=C/c3ccc(Cl)cc3)C2)C/C1=C\c1ccc(Cl)cc1` [Compound 3c] the CC50 ([1]; HL-60, 48 h, MTT, mean ± SD) was 5 ± 0.76 µM, the “SI (selectivity index) HL-60” value [1] was 8.26 and the CC50 ([2]; HSC-2, 48 h, MTT, mean ± SD) was 5.5 ± 0.65 µM. The “SI (selectivity index) HSC-2” value [2] was 7.51, the CC50 ([3]; HSC-3, 48 h, MTT, mean ± SD) was 13 ± 2.2 µM and the “SI (selectivity index) HSC-3” value [3] was 3.18. For the same compound, the CC50 ([4]; HSC-4, 48 h, MTT, mean ± SD) was 5.5 ± 0.96 µM, the “SI (selectivity index) HSC-4” value [4] was 7.51 and the CC50 at 48 h [5] was 41 ± 2.5 µM. It also gave a CC50 at 48 h [6] of 38 ± 8.7 µM, a CC50 at 48 h [7] of 45 ± 11 µM and a CC50 ([8]; average of HL-60, HSC-2, HSC-3, HSC-4) of 7.25 µM. The “AVE SI” value [8] was 6.62, the CC50 at 48 h [9] was 41.3 µM and the “Induction of caspases-3 and -7” value (caspases-3 and -7) was “does not exert these effects”. The “Cleavage of PARP1” value (PARP1) was “does not exert these effects”, the Cell cycle effect (HSC-2 cells) was “does not exert these effects” and the “Effect on pro-apoptotic proteins bim, bax, puma, bak” value (bim, bax, puma, and bak) was “no changes in the concentrations of these proteins were observed”. For the same compound, the “Effect on mitochondrial membrane potential (MMP)” value (HCT116 cells [10]) was “no effect at the concentrations utilized” and the “Generation of reactive oxygen species (ROS)” value (HCT116 cells [11]) was “cause an increase in the ROS concentrations”.
With `N[C@@H](Cc1ccc(N(CCCl)CCCl)cc1)C(=O)O` [Melphalan, reference compound] the CC50 ([1]; HL-60, 48 h) was 0.89 ± 0.17 µM, the “SI (selectivity index) HL-60” value [1] was 75.6 and the CC50 ([2]; HSC-2, 48 h) was 12 ± 2.7 µM. For the same compound, the “SI (selectivity index) HSC-2” value [2] was 5.61, the CC50 ([3]; HSC-3, 48 h) was 46 ± 31 µM and the “SI (selectivity index) HSC-3” value [3] was 1.46. The CC50 ([4]; HSC-4, 48 h) was 46 ± 6 µM, the “SI (selectivity index) HSC-4” value [4] was 1.46 and the CC50 [12] was 73 ± 15 µM. For the same compound, the CC50 (human pulp cells (HPC)) was 37 ± 7.3 µM, the CC50 [13] was 92 ± 7.8 µM and the CC50 [8] was 26.2 µM. For the same compound, the “AVE SI” value [8] was 21.0, the CC50 at 48 h [9] was over 50 µM and the CC50 [14] was 67.3 µM.
